Assay results taken from patent publication US20110207740A1, “PHARMACEUTICAL COMPOSITIONS” (priority 2003, published 2011).

Legend:
A2a receptor = A2a receptor (Homo sapiens, UniProt P29274); details: cited from earlier work
[1] = Formula 1 concentration in acidified propylene glycol stock solutions and after dilution with deionized water; format: physicochemical
From the text: [table] […] In this way, the concentration of propylene glycol was decreased 10 fold from the initial concentration of 86% to a final concentration of 8.6%. […] Similarly, Formula 1 solubility should not be affected by the 2-10× dilution of sodium docusate as this surfactant will still be present at levels above its critical micelle concentration (CMC).

[2] = Precipitation from acidic aqueous solution in presence of sodium docusate; format: physicochemical; details: pH 2.0, 0.1 mg/mL aqueous solution
From the text: For aqueous formulations of the present invention, surfactants such sodium docusate are typically added to improve aqueous solubility. However, sodium docusate actually decreases the aqueous solubility of 7-[2-[4-[4-(methoxyethoxy)phenyl]1-piperazinyl]ethyl]-2-(2-furanyl)-7H-pyrazolo[4,3-e]triazolo[1,5-c]pyrimidin-5-amine under acidic conditions. […] More specifically, by “ion-pair” it is meant to mean the non-covalent bonding of two oppositely charged molecules.

[3] = Non-aqueous solubility (ethanol, propylene glycol, soybean oil); format: physicochemical
From the text: However, as shown in the Table 1 below, the A2a receptor antagonist compound described above has both low aqueous and non-aqueous solubility.

[4] = Extraction of Formula 1 from stock solutions into soybean oil; format: physicochemical; details: excess Formula 1
pKa (titrated) = format: physicochemical
Method: As expected, solubility improves with ionization. However, even when essentially all of the compound carries a +1 charge, the aqueous solubility remains poor, e.g., at pH 4 the solubility is <2 μg/mL. Similarly, at pH 2 the average charge will be +2 but, the solubility for this strongly charged compound is only 1 mg/mL. Based on the pKa values, under still more acidic conditions this compound will have an average charge of +3 and the solubility might be expected to increase further. However, no further increase in solubility has been achieved, i.e., at pH 1.0 (0.1 NHCL) the solubility of this compound decreases to <1 mg/mL. This type of decrease in solubility is consistent with the formation of insoluble chloride salts.

[5] = Formula I:docusate complex dissolved in propylene glycol (Example 1); format: physicochemical
Method: A non-aqueous embodiment of the formulations of the present invention was prepared as set forth by the following procedure. A first solution was prepared by adding 100 mg of the compound of Formula I above to 500 mL of 0.01 NHCL. Next, a second Solution was prepared by adding 20 grams of sodium docusate to 500 mL of 0.01 NHCL. These two solutions were mixed and a complex of the compound of Formula I and docusate sodium was precipitated from solution. The precipitate was thereafter separated by centrifuging the mixture, decanting the supernatant and then drying the residue complex.
The dried residue was then dissolved in a small quantity of propylene glycol and the concentration of the compound of Formula I in this solution was determined to be 2.5 mg/mL.

[6] = Aqueous solubility (buffers, pH dependence); format: physicochemical
From the text: As expected, solubility improves with ionization. […] This type of decrease in solubility is consistent with the formation of insoluble chloride salts. […] However, as shown in the Table 1 below, the A2a receptor antagonist compound described above has both low aqueous and non-aqueous solubility.

Sequence of A2a receptor (P29274 whole entry): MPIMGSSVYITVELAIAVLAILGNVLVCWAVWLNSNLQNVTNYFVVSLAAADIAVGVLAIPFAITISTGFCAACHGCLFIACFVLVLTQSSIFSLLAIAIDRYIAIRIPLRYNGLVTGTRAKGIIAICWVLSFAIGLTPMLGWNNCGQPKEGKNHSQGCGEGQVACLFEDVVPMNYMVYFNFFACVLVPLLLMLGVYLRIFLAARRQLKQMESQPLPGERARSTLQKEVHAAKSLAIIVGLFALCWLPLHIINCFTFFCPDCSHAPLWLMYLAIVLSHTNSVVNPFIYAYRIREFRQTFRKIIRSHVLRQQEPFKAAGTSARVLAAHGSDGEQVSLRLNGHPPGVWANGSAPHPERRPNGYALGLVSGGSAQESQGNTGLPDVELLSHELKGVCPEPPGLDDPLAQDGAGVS

In the case of `COCCOc1ccc(N2CCN(CCn3ncc4c3nc(N)n3nc(-c5ccco5)nc43)CC2)cc1` [Formula 1, 7-[2-[4-[4-(methoxyethoxy)phenyl]1-piperazinyl]ethyl]-2-(2-furanyl)-7H-pyrazolo[4,3-e]triazolo[1,5-c]pyrimidin-5-amine], the “Potency as an A2a receptor antagonist” value (A2a receptor) is listed as “considerable potency”, the “Formula 1 concentration, 86% PG/(Stock)” value ([1]; Stock solution 1: acidified propylene glycol (86% v/v, citric acid/HCl to pH 3.4), undiluted) is listed as 9.8 mg/mL and the “Formula 1 concentration, 43% PG/DF2” value ([1]; Stock solution 1: acidified propylene glycol, diluted with deionized water DF2) is listed as 4.6 mg/mL. For the same molecule, the “Formula 1 concentration, 17% PG/DF4” value ([1]; Stock solution 1: acidified propylene glycol, diluted with deionized water DF4) was 1.9 mg/mL, the “Formula 1 concentration, 8.6% PG/DF10” value ([1]; Stock solution 1: acidified propylene glycol, diluted with deionized water DF10) was 0.97 mg/mL and the “Formula 1 concentration, 86% PG/(Stock)” value ([1]; Stock solution 2: acidified propylene glycol + 36 mg/mL Tween 80, undiluted) was 8.7 mg/mL. For the same molecule, the “Formula 1 concentration, 43% PG/DF2” value ([1]; Stock solution 2: acidified propylene glycol + Tween 80, diluted with deionized water DF2) was 4.0 mg/mL, the “Formula 1 concentration, 17% PG/DF4” value ([1]; Stock solution 2: acidified propylene glycol + Tween 80, diluted with deionized water DF4) was 1.8 mg/mL and the “Formula 1 concentration, 8.6% PG/DF10” value ([1]; Stock solution 2: acidified propylene glycol + Tween 80, diluted with deionized water DF10) was 0.78 mg/mL. The “Formula 1 concentration, 86% PG/(Stock)” value ([1]; Stock solution 3: acidified propylene glycol + 61 mg/mL docusate sodium, undiluted) was 9.2 mg/mL, the “Formula 1 concentration, 43% PG/DF2” value ([1]; Stock solution 3: acidified propylene glycol + docusate sodium, diluted with deionized water DF2) was 0.14 mg/mL and the “Formula 1 concentration, 17% PG/DF4” value ([1]; Stock solution 3: acidified propylene glycol + docusate sodium, diluted with deionized water DF4) was 0.037 mg/mL. The “Formula 1 concentration, 8.6% PG/DF10” value ([1]; Stock solution 3: acidified propylene glycol + docusate sodium, diluted with deionized water DF10) was 0.011 mg/mL, the “Maximum concentration relative to solubility in propylene glycol” value ([1]; acidified propylene glycol without docusate) was 300 times and the “Concentration relative to solubility in propylene glycol” value ([1]; direct addition to acidified propylene glycol and docusate) was “greater than 300 times”. For the same molecule, the “Concentration in acidified propylene glycol solution” value ([1]; propylene glycol solution acidified to ionize the active compound) was “more than 9 mg/mL”, the “Behaviour of solution in presence of sodium docusate” value [2] was “precipitate out of solution” and the solubility ([3]; ethanol, organic solvent or mixture) was 100 µg/mL. The solubility ([3]; propylene glycol, organic solvent or mixture, Propylene Glycol (neutral compound)) was about 30 µg/mL, the solubility ([3]; soybean oil, oil or lipid) was under 70 µg/mL and the “Soybean Oil Amt. Extracted” value ([4]; extracted from stock solution 1 (acidified propylene glycol)) was 0.006 mg/mL. The “Soybean Oil Amt. Extracted” value ([4]; extracted from stock solution 2 (acidified propylene glycol + Tween 80)) was 0.007 mg/mL, the “Soybean Oil Amt. Extracted” value ([4]; extracted from stock solution 3 (acidified propylene glycol + docusate sodium)) was 0.28 mg/mL and the pKa (pKa (titrated)) was 6.87. For the same molecule, the “Solubility relative to compound alone in propylene glycol” value ([5]; Formula I:docusate complex in propylene glycol) was “more than 80 fold”, the “Concentration of the compound of Formula I in propylene glycol solution” value ([5]; dried Formula I:docusate sodium complex dissolved in propylene glycol) was 2500 µg/mL and the “Concentration relative to active compound and propylene glycol only” value ([5]; formulated with docusate sodium in acidified propylene glycol) was 80 times. For the same molecule, the solubility ([6]; 0.1 N HCl, pH 1, simulated gastric fluid, pH 1.0 (0.1 NHCL)) was under 1000 µg/mL, the “Aqueous Solubility” value ([6]; Buffer pH 4) was 1.7 µg/mL and the solubility ([6]; aqueous buffer, pH 3, aqueous buffer, Buffer pH 3) was 105 µg/mL. The solubility ([6]; aqueous buffer, pH 4, aqueous buffer, Buffer pH 4) was under 2 µg/mL, the solubility ([6]; aqueous buffer, pH 7.4, aqueous buffer, Buffer pH 7.4) was under 0.005 µg/mL and the solubility ([6]; aqueous medium, pH 2, simulated gastric fluid, pH 2) was 1000 µg/mL. For the same molecule, the “Solubility in aqueous media” value ([6]; neutral pH) was “virtually insoluble”.
